From patent publication US20240294551A1 (AMGEN INC., priority 2022, published 2024)
Where a name gives a salt, the structure may show the parent alone.

How the values were obtained:
[1] = molecular target: His-tagged KRAS G12D protein (Homo sapiens (Human), UniProt P01116, G12D); test: KRAS G12D TR-FRET Assay; type: binding; details: read-out: KRAS G12D Binding IC50
Summary of the method: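 Each incubation ran at room temperature: enzyme with compound for 30 minutes, peptide for one hour, and detection reagents (0.4 nM europium anti-6×His, 5 nM streptavidin-d2) for one hour more. Protein and peptide stocks were each diluted to 20 nM before addition.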

[2] = molecular target: GDP-bound KRAS protein (aa 1-169), containing both G12D and C118A amino acid substitutions (Homo sapiens (Human), UniProt P01116, C118A/G12D); test: KRAS G12D Coupled Nucleotide Exchange Assay; type: biochemical; details: read-out: KRAS G12D Coupled Exchange IC50
[3] = system: Phosphorylation of ERK1/2 in AsPC-1 cells; test: Phospho-ERK1/2 MSD Assay; type: cell-based, human; details: Homo sapiens, ASPC1, 2 h, read-out: 2 h p-ERK (AsPC-1 cells), IC50
Summary of the method: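 Read-out: MSD electrochemiluminescent detection of phosphorylated ERK1/2 in whole-cell lysates, fitted to a 4-parameter logistic curve for IC50. Prior to lysis, AsPC-1 cells (25,000 per well) received a 2 h compound dose-response at 37 °C.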

AsPC-1 cells = test: AsPC-1 CTG Assay (CellTiter-Glo cell viability); type: cell-based, human; details: Homo sapiens, ASPC1, 72 h, AsPC-1, 72 h; first value of the cell; read-out: G12D/C/V Cell Proliferation CTG (72 h) AsPC-1
Summary of the method: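 IC50 values derive from 4-parameter logistic fits of CellTiter-Glo luminescence, expressed relative to DMSO. Compound dilution series were applied to overnight-seeded AsPC-1 or SW620 cells (RPMI 1640, 10% FBS) for 72 h at 37 °C, 5% CO2.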

SW620 cells = test: SW620 CTG Assay (CellTiter-Glo cell viability); type: cell-based, human; details: Homo sapiens, SW-620; SW620, 72 h; third value of the cell; read-out: G12D/C/V Cell Proliferation CTG (72 h) SW620
Experimental: AsPC-1 and SW620 CTG Assay Protocols
AsPC-1 (human pancreatic adenocarcinoma; ATCC CRL-1682) or SW620 (human colon adenocarcinoma; ATCC CCL-227) cells were cultured in RPMI 1640 medium containing 10% fetal bovine serum and 1× penicillin/streptomycin/L-glutamine. Cells were seeded in 384-well plates at a density of 3.33E+04 cells/mL and incubated at 37° C., 5% CO2, overnight. Serially-diluted compound or DMSO was added to the cells, and plates were incubated at 37° C., 5% CO2 for 72 h. Cell viability was measured using a CellTiter-Glo® Luminescent Cell Viability Assay kit (Promega) according to the manufacturer's protocol. The luminescence signal of treated samples was normalized to DMSO control, and data were analyzed using a 4-parameter logistic model to calculate IC50 values.

Chain of GDP-bound KRAS protein (aa 1-169), containing both G12D and C118A amino acid substitutions (P01116 other isoform, or with tags, fused parts or gaps G12D/C118A): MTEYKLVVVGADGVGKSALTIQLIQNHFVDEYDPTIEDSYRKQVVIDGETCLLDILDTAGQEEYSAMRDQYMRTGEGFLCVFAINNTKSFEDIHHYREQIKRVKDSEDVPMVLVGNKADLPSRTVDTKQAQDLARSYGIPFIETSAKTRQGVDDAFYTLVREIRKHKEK
Chain of His-tagged KRAS G12D protein (P01116 other isoform, or with tags, fused parts or gaps G12D): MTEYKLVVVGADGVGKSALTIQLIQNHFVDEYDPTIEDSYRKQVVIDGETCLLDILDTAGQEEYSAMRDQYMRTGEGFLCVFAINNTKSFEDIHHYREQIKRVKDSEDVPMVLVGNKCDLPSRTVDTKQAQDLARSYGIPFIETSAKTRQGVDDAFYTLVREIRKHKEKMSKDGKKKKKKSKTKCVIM

| SMILES | IC50 [1] [µM] | IC50 [2] [µM] | IC50 [3] [µM] | IC50 (AsPC-1 cells) [µM] | IC50 (SW620 cells) [µM] |
| --- | --- | --- | --- | --- | --- |
| Cc1cc2[nH]ncc2c2c1CCCOC(=O)O[C@@H]1CCCN(C1)c1nc(OC[C@@]34CCCN3C[C@H](F)C4)nc3c(F)c-2ncc13 [Example 38, (17R)-30-Fluoro-24-(((2R,7aS)-2-fluorotetrahydro-1H-pyrrolo[1,2-a]pyrrol-7a(5H)-yl)methoxy)-9-methyl-14,16-dioxa-5,6,21,23,25,29-hexaazahexacyclo[24.3.1.1˜17,21˜.0˜2,10˜.0˜3,7˜.0˜22,27˜]hentriaconta-1(30),2,4,7,9,22,24,26,28-nonaen-15-one bis(2,2,2-trifluoroacetate)] | 0.002 | 0.002 | 0.02 | 0.443 | 0.076 |
| O=C1OCCCc2c(Cl)cc3[nH]ncc3c2-c2ncc3c(nc(OC[C@@]45CCCN4C[C@H](F)C5)nc3c2F)N2CCCC[C@H](C2)O1 [Example 100, (26R)-18-chloro-32-fluoro-4-(((2R,7aS)-2-fluorotetrahydro-1H-pyrrolo[1,2-a]pyrrol-7a(5H)-yl)methoxy)-23,25-dioxa-1,3,5,9,14,15-hexaazahexacyclo[24.4.1.1~6,10~.0~2,7~.0~11,19~.0~12,16~]dotriaconta-2,4,6,8,10(32),11,13,16,18-nonaen-24-one] | 0.002 | 0.001 | 0.004 | 0.06 | 0.01 |
| Cc1cc2[nH]ncc2c2c1[C@H]1C[C@H]1COCC[C@@H]1CCCN(C1)c1nc(OC[C@@]34CCCN3C[C@H](F)C4)nc3c(F)c-2ncc13 [Example 153, (11S,13R,18S)-31-fluoro-25-(((2R,7aS)-2-fluorotetrahydro-1H-pyrrolo[1,2-a]pyrrol-7a(5H)-yl)methoxy)-9-methyl-15-oxa-5,6,22,24,26,30-hexaazaheptacyclo[25.3.1.1~18,22~.0~2,10~.0~3,7~.0~11,13~.0~23,28~]dotriaconta-1(31),2,4,7,9,23,25,27,29-nonaene] | 0.003 | 0.003 | 0.009 | 0.21 | 0.0325 |
| Cc1cc2[nH]ncc2c2c1CCCOC(=O)O[C@@H]1COCCN(C1)c1nc(OC[C@@]34CCCN3C[C@H](F)C4)nc3c(F)c-2c(F)cc13 [Example 102, (26S)-9,32-difluoro-4-(((2R,7aS)-2-fluorotetrahydro-1H-pyrrolo[1,2-a]pyrrol-7a(5H)-yl)methoxy)-18-methyl-23,25,28-trioxa-1,3,5,14,15-pentaazahexacyclo[24.4.1.1~6,10~.0~2,7~.0~11,19~.0~12,16~]dotriaconta-2,4,6,8,10(32),11,13,16,18-nonaen-24-one] |  |  | 0.01 | 0.09 | 0.0226 |
| C[C@@]12CCCN(C1)c1nc(OC[C@@]34CCCN3C[C@H](F)C4)nc3c(F)c(ncc13)-c1cccc3ccc(F)c(c13)CC[C@H](F)C(=O)N2 [Example 12, (15R,18S)-18,22,31-trifluoro-8-(((2R,7aS)-2-fluorotetrahydro-1H-pyrrolo[1,2-a]pyrrol-7a(5H)-yl)methoxy)-15-methyl-3,7,9,11,16-pentaazahexacyclo[19.7.1.1˜2,6˜.1˜11,15˜.0˜5,10˜.0˜25,29˜]hentriaconta-1(28),2(31),3,5,7,9,21,23,25(29),26-decaen-17-one] | 0.006 | 0.003 | 0.052 | 0.49 | 0.427 |
| CN1C(=O)CCCCc2c(Cl)cc3[nH]ncc3c2-c2ncc3c(nc(OC[C@@]45CCCN4C[C@H](F)C5)nc3c2F)N2CCC[C@@H]1C2 [Example 53, (17R)-9-chloro-30-fluoro-24-(((2R,7aS)-2-fluorotetrahydro-1H-pyrrolo[1,2-a]pyrrol-7a(5H)-yl)methoxy)-16-methyl-5,6,16,21,23,25,29-heptaazahexacyclo[24.3.1.1~17,21~.0~2,10~.0~3,7~.0~22,27~]hentriaconta-1(30),2,4,7,9,22,24,26,28-nonaen-15-one] | 0.008 | 0.004 | 0.074 | 0.48 | 0.15 |
| C[C@@]12CCCN(C1)c1nc(OC[C@@]34CCCN3C[C@H](F)C4)nc3c(F)c(ncc13)-c1cc(O)cc3cccc(c13)CCCCC(=O)N2 [Example 8, (15R)-32-Fluoro-8-(((2R,7aS)-2-fluorotetrahydro-1H-pyrrolo[1,2-a]pyrrol-7a(5H)-yl)methoxy)-28-hydroxy-15-methyl-3,7,9,11,16-pentaazahexacyclo[20.7.1.1˜2,6˜.1˜11,15˜.0˜5,10˜.0˜26,30˜]dotriaconta-1(29),2(32),3,5,7,9,22,24,26(30),27-decaen-17-one (2,2,2-trifluoroacetate) salt] | 0.008 | 0.006 | 0.06 |  | 0.579 |

The remaining lines, values ahead:

| IC50 [1] [µM] | IC50 [2] [µM] | IC50 [3] [µM] | IC50 (AsPC-1 cells) [µM] | IC50 (SW620 cells) [µM] | SMILES |
| --- | --- | --- | --- | --- | --- |
| 0.006 | 0.005 | 0.052 | 0.72 | 0.302 | Fc1c2ncc3c(nc(OC[C@@]45CCCN4C[C@H](F)C5)nc13)N1CCC[C@H](C1)Cn1ncc(n1)/C=C\c1c(Cl)cc3[nH]ncc3c1-2 [Example 155, (11Z,18R)-9-chloro-31-fluoro-25-(((2R,7aS)-2-fluorotetrahydro-1H-pyrrolo[1,2-a]pyrrol-7a(5H)-yl)methoxy)-5,6,15,16,22,24,26,30,33-nonaazaheptacyclo[25.3.1.1~13,16~.1~18,22~.0~2,10~.0~3,7~.0~23,28~]tritriaconta-1(31),2,4,7,9,11,13(33),14,23,25,27,29-dodecaen] |
| 0.012 | 0.003 | 0.11 | 0.72 | 0.367 | Fc1c2ncc3c(nc(OC[C@@]45CCCN4C[C@H](F)C5)nc13)N1CCC[C@H](C1)Cn1ncc(n1)CCc1c(Cl)cc3[nH]ncc3c1-2 [Example 156, (18R)-9-chloro-31-fluoro-25-(((2R,7aS)-2-fluorotetrahydro-1H-pyrrolo[1,2-a]pyrrol-7a(5H)-yl)methoxy)-5,6,15,16,22,24,26,30,33-nonaazaheptacyclo[25.3.1.1~13,16~.1~18,22~.0~2,10~.0~3,7~.0~23,28~]tritriaconta-1(31),2,4,7,9,13(33),14,23,25,27,29-undecaene] |
| 0.004 | 0.001 | 0.0071 | 0.209 | 0.075 | O=C1OCCc2c(Cl)cc3[nH]ncc3c2-c2ncc3c(nc(OC[C@@]45CCCN4C[C@H](F)C5)nc3c2F)N2CCC[C@@H](CO1)C2 [Example 221] |
|  | 0.001 | 0.008 | 0.117 | 0.031 | CN(C)CC1(COc2nc3c4cnc(c(F)c4n2)-c2c(c(Cl)cc4[nH]ncc24)CCOC(=O)O[C@H]2C[C@]4(CCCN3C4)C2)CC1 [Example 334, (1S,3R)-10-chloro-24-((1-((dimethylamino)methyl)cyclopropyl)methoxy)-32-fluoro-4,6-dioxa-13,14,19,23,25,27-hexaazaheptacyclo[25.3.1.1~1,3~.1~18,22~.0~9,17~.0~12,16~.0~21,26~]tritriaconta-9,11,14,16,18(32),19,21,23,25-nonaen-5-one] |
| 0.004 | 0.002 | 0.0147 | 0.196 | 0.058 | CN1CCC[C@H]1COc1nc2c3cnc(c(F)c3n1)-c1c(c(Cl)cc3[nH]ncc13)CCCOC(=O)O[C@@H]1COCCN2C1 [Example 207, (26S)-18-chloro-32-fluoro-4-(((2S)-1-methyl-2-pyrrolidinyl)methoxy)-23,25,28-trioxa-1,3,5,9,14,15-hexaazahexacyclo[24.4.1.1~6,10~.0~2,7~.0~11,19~.0~12,16~]dotriaconta-2,4,6,8,10(32),11,13,16,18-nonaen-24-one] |
| 0.004 | 0.002 | 0.0084 | 0.013 | 0.024 | C[C@@]12CCCN(C1)c1nc(OC[C@@]34CCCN3C[C@H](F)C4)nc3c(F)c(ncc13)-c1c(c(Cl)cc3[nH]ncc13)CCCOC(=O)O2 [Example 327, (17R)-9-chloro-30-fluoro-24-(((2R,7aS)-2-fluorotetrahydro-1H-pyrrolo[1,2-a]pyrrol-7a(5H)-yl)methoxy)-17-methyl-14,16-dioxa-5,6,21,23,25,29-hexaazahexacyclo[24.3.1.1~17,21~.0~2,10~.0~3,7~.0~22,27~]hentriaconta-1(30),2,4,7,9,22,24,26,28-nonaen-15-one] |
